# Experimental data taken from patent US20100130436A1, “CO-ADMINISTRATION OF RANOLAZINE AND CARDIAC GLYCOSIDES” (priority 2008, published 2010).
# Where two headings read alike, the source gives them in different places.
# Columns and labels:
# [1] = test system: [Na+]i of guinea pig isolated heart; test: 23Na-NMR spectroscopy of intracellular sodium concentration in isolated heart; conditions: for [Na+]i: no ouabain
# Na+, K+-ATPase = test: Na+,K+-ATPase activity assay by 86Rb+ uptake of A7r5 cells; type: cell-based; conditions: for 86Rb+ uptake: control = activity in presence of ouabain
# Text: The activity of Na^+, K^+-ATPase was inhibited 77% by 1 mmol/L ouabain in the absence (control) of ranolazine. Values of ^86Rb^+ uptake were 91±11, 98±2.5, and 93±8.3% of control (activity in presence of ouabain) in the presence of 3, 10, and 30 μmol/L ranolazine, respectively.
# [2] = test system: late sodium current (late INa); test: Whole-cell patch-clamp of late INa in isolated ventricular myocytes; type: cell-based, guinea pig
# [3] = test system: guinea pig isolated, perfused heart; test: 31P-NMR spectroscopy of energy-related phosphates and pHi in isolated heart
# [4] = test system: isolated guinea pig papillary muscles; conditions: 5 and 10 μmol/L ranolazine and 1 μmol/L TTX
# [5] = test system: guinea pig isolated, perfused heart
# [6] = 0.75 μmol/L ouabain in the presence of 10 μmol/L ranolazine
# [7] = 0.75 μmol/L ouabain in the presence of 10 μmol/L ranolazine, 60 min
smiles,measurement,setting,value
COc1ccccc1OCC(O)CN1CCN(CC(=O)Nc2c(C)cccc2C)CC1 (stereo not drawn) [ranolazine],[Na+]i plateau concentration,"[1]; 1.3 μmol/L ouabain in the presence of 10 μmol/L ranolazine, n=8",15.4 ± 0.45 mmol/L
same,[Na+]i,[1]; 10 μmol/L ranolazine for up to 30 min or 1 μmol/L TTX for 10 min,did not significantly change
same,ouabain-induced increase in [Na+]i,"[1]; 3 or 10 μmol/L ranolazine given after 40 min of 0.75 μmol/L ouabain alone, pooled n=6, FIG. 8C",partially reversed
same,cardiac [Na+]i during normal perfusion,"[1]; Example 1, RAN 10 μM",did not change
same,[Na+]i accumulation during ouabain treatment,"[1]; Example 1, RAN 10 μM, P<0.01",reduced
same,decrease in the ouabain-induced rise of [Na+]i,"[1]; FIG. 8E, Ran 3 and 10, TTX 0.5 and 1 μmol/L",concentration-dependent
same,[Na+]i,"[1]; ranolazine 10 μmol/L for 30 min, n=5, control 6.9±0.6",6.5 ± 0.4 mmol/L
same,level of [Na+]i in hearts previously exposed to ouabain alone for 40 min,"[1]; ranolazine 10 μmol/L, 30 min, FIG. 8C",did not significantly reduce
same,86Rb+ uptake,"Na+, K+-ATPase; 3 μmol/L ranolazine",91±11 % of control
same,86Rb+ uptake,"Na+, K+-ATPase; 10 μmol/L ranolazine",98±2.5 % of control
same,86Rb+ uptake,"Na+, K+-ATPase; 30 μmol/L ranolazine",93±8.3 % of control
same,effect on sodium pump activity,"Na+, K+-ATPase; 3, 10, 30 μmol/L ranolazine",no measurable effect
same,effect of 1 μmol/L ouabain to increase late INa,"[2]; FIG. 9, ranolazine 10 μmol/L or TTX 3 μmol/L",partially reversed
same,reduction of late INa,"[2]; ranolazine 10 μmol/L in the continuous presence of ouabain 1 μmol/L, n=8",69±9%
same,late INa,"[2]; ranolazine 10 μmol/L in the continuous presence of ouabain, from 99.6±15.2, n=8",50.6±13.6 pC/pF
same,[Pi] increase,[3]; [6],1.3±0.1 times
same,fall in pHi,[3]; [6],not significant
same,[ATP],[3]; [7],did not change significantly
same,[PCr] decrease from baseline,[3]; [7],19±5%
same,[Pi] increase,"[3]; Example 1, RAN + ouabain",14%
same,pH,"[3]; Example 1, RAN + ouabain",remained constant
same,ATP and PCr decrease,"[3]; Example 1, RAN pretreatment, after 60 min of ouabain treatment",20%
same,decrease of |ΔG~ATP|,[3]; ouabain in the presence of 10 μmol/L ranolazine,0.454 ± 0.14 kcal/mol
same,concentrations of phosphates or pHi,[3]; ranolazine alone for 10 min,did not alter
same,increase of diastolic tension during ouabain treatment,[4],attenuated
same,effect of ouabain to cause contractile dysfunction,[5],attenuated
same,"mechanical dysfunction (increase in end diastolic pressure, episodes of cardiac standstill)",[5],not observed
same,occurrence of episodes of cardiac standstill caused by ouabain,[5],reduced
same,maximum value of RPP,"[5]; 0.75 μmol/L ouabain + 3 μmol/L ranolazine, n=8","40,033±1,477 mmHg/min"
same,positive inotropic response to ouabain during the 60-min exposure,[5]; 0.75 μmol/L ouabain + 5 μmol/L ranolazine,not sustained at a maximal level
same,maximum value of RPP,"[5]; 0.75 μmol/L ouabain + 5 μmol/L ranolazine, n=5","38,874±2,904 mmHg/min"
same,maximum value of RPP,"[5]; 0.75 μmol/L ouabain + 10 μmol/L ranolazine, n=8","41,079±2,097 mmHg/min"
same,positive inotropic response to ouabain,"[5]; Example 1, RAN 10 μM, ouabain 0.75-1.3 μM for 60 min",did not reduce
same,systolic pressure during Ranolazine delivery,"[5]; FIG. 2, 3.3 uM Ran pretreatment",slight drop
same,maximal inotropic effect of ouabain,"[5]; FIG. 2, heart pretreated with 3.3 uM Ran",the same as in the ouabain alone treated hearts
same,SP (systolic pressure),"[5]; FIG. 3, 5 uM Ran",transient decrease
same,maximal positive inotropic effect of ouabain,"[5]; FIG. 3, 5 uM Ran",not reduced
same,left ventricular contractile function over the duration of the experiment,"[5]; FIG. 4, heart pretreated with 10 uM Ran",stable contractile function
same,ability of ouabain to significantly increase the pos dP/dt,[5]; FIG. 6,did not affect
same,RPP increase upon infusion with ouabain,"[5]; FIG. 6, hearts pretreated with 10 uM ranolazine",reached the same value as in the absence of ranolazine
same,RPP during the wash out period,"[5]; FIG. 6, ouabain in the presence of ranolazine vs ouabain alone",improved
same,decrease of RPP (rate pressure product),"[5]; FIG. 6, pretreatment with 10 uM ranolazine, before ouabain",about 20%
same,developed pressure,"[5]; FIG. 7, ouabain, hearts treated with 10 uM ranolazine",increased
same,LVDevP at the end of washout,[5]; ouabain + 3 μmol/L ranolazine,59.2±5.5 mmHg
same,positive inotropic effect of ouabain throughout the 60-min exposure,[5]; ouabain + 10 μmol/L ranolazine (n=8) or 1 μmol/L TTX (n=6),sustained
same,episodes of cardiac standstill and changes in LVEDP,[5]; ouabain + 10 μmol/L ranolazine or 1 μmol/L TTX,neither episodes of cardiac standstill nor changes in LVEDP were observed
same,LVDevP at the end of washout,[5]; ouabain + 5 or 10 μmol/L ranolazine or 1 μmol/L TTX,not significantly different from control
same,recovery of contractile function after drug washout,"[5]; ouabain + 5 or 10 μmol/L ranolazine or 1 μmol/L TTX, vs ouabain alone",better recovery
same,LVSP decrease,[5]; ranolazine alone 3 μmol/L,8%
same,LVSP decrease,[5]; ranolazine alone 5 μmol/L,16.7%
same,LVSP decrease,[5]; ranolazine alone 10 μmol/L,15.8%
